Test results from publication PMC5218480 (PLoS ONE, 2017).

System: MV-4-11 cells
Assay: Gene expression microarray analysis (Affymetrix PrimeView) and GSEA
Type: cell-based, human
Parameters: RFU PODN (11730768_x_at) / Fold change /veh PODN (11730768_x_at) / RFU LINC00158 (11744669_a_at) / Fold change /veh LINC00158 (11744669_a_at) / RFU DUSP10 (11751237_a_at) / Fold change /veh DUSP10 (11751237_a_at) / RFU ID3 (11757404_x_at) / Fold change /veh ID3 (11757404_x_at) / RFU PLEKHG5 (11737974_s_at) / Fold change /veh PLEKHG5 (11737974_s_at) / RFU LRRC4B (11730491_at) / Fold change /veh LRRC4B (11730491_at) / RFU GIMAP4 (11747438_a_at) / Fold change /veh GIMAP4 (11747438_a_at) / RFU KRT8 (11758183_x_at) / Fold change /veh KRT8 (11758183_x_at) / RFU CNN1 (11734310_a_at) / Fold change /veh CNN1 (11734310_a_at) / RFU VPS37D (11726825_at) / Fold change /veh VPS37D (11726825_at) / RFU C10orf10 (11716522_x_at) / Fold change /veh C10orf10 (11716522_x_at) / RFU KIR2DL2 /// KIR2DL4 /// KIR2DL5A /// KIR2DL5B /// KIR2DS1 /// KIR2DS2 /// KIR2DS3 /// KIR2DS4 /// KIR3DL3 /// KIR3DL3 /// KIR3DS1 (11738374_at) / Fold change /veh KIR2DL2 /// KIR2DL4 /// KIR2DL5A /// KIR2DL5B /// KIR2DS1 /// KIR2DS2 /// KIR2DS3 /// KIR2DS4 /// KIR3DL3 /// KIR3DL3 /// KIR3DS1 (11738374_at) / RFU C1QL1 (11718748_at) / Fold change /veh C1QL1 (11718748_at) / RFU TMPRSS4 (11747572_a_at) / Fold change /veh TMPRSS4 (11747572_a_at) / RFU HAMP (11756126_x_at) / Fold change /veh HAMP (11756126_x_at) / RFU RNFT2 (11725882_a_at) / Fold change /veh RNFT2 (11725882_a_at) / RFU NR4A2 (11747474_a_at) / Fold change /veh NR4A2 (11747474_a_at) / RFU ABCC12 (11746883_a_at) / Fold change /veh ABCC12 (11746883_a_at) / RFU TMEM136 (11760407_x_at) / Fold change /veh TMEM136 (11760407_x_at) / RFU CLDN22 /// WWC2 (11732394_at) / Fold change /veh CLDN22 /// WWC2 (11732394_at) / RFU HLA-DPB1 (11760878_x_at) / Fold change /veh HLA-DPB1 (11760878_x_at) / RFU SPINT1 (11716480_a_at) / Fold change /veh SPINT1 (11716480_a_at) / RFU GAP43 (11754022_s_at) / Fold change /veh GAP43 (11754022_s_at) / RFU A4GNT (11735810_at) / Fold change /veh A4GNT (11735810_at) / RFU PRB3 (11715151_x_at) / Fold change /veh PRB3 (11715151_x_at) / RFU TUBB4B (11761932_at) / Fold change /veh TUBB4B (11761932_at) / RFU CAPN14 (11732068_a_at) / Fold change /veh CAPN14 (11732068_a_at) / RFU TMCC2 (11721928_a_at) / Fold change /veh TMCC2 (11721928_a_at) / RFU IRGQ (11745062_a_at) / Fold change /veh IRGQ (11745062_a_at) / RFU FAM174B (11720279_a_at) / Fold change /veh FAM174B (11720279_a_at) / RFU TMPRSS4 (11748680_a_at) / Fold change /veh TMPRSS4 (11748680_a_at) / RFU FAM212B (11763350_a_at) / Fold change /veh FAM212B (11763350_a_at) / RFU PLEKHG5 (11743358_a_at) / Fold change /veh PLEKHG5 (11743358_a_at) / RFU ZSCAN30 (11745921_a_at) / Fold change /veh ZSCAN30 (11745921_a_at) / RFU CMKLR1 (11741424_a_at) / Fold change /veh CMKLR1 (11741424_a_at) / RFU LOC101060620 /// MAPK8IP1 (11723275_at) / Fold change /veh LOC101060620 /// MAPK8IP1 (11723275_at) / RFU SPTSSB (11747773_x_at) / Fold change /veh SPTSSB (11747773_x_at) / RFU PRSS12 (11739890_at) / Fold change /veh PRSS12 (11739890_at) / RFU BIN1 (11741810_x_at) / Fold change /veh BIN1 (11741810_x_at) / RFU WNT11 (11732464_a_at) / Fold change /veh WNT11 (11732464_a_at) / RFU C10orf10 (11716521_a_at) / Fold change /veh C10orf10 (11716521_a_at) / RFU C5orf56 (11738089_at) / Fold change /veh C5orf56 (11738089_at) / RFU CYB561 (11721691_x_at) / Fold change /veh CYB561 (11721691_x_at) / RFU ANKRD19P (11752326_a_at) / Fold change /veh ANKRD19P (11752326_a_at) / RFU OR2T12 /// OR2T33 /// OR2T8 (11738714_s_at) / Fold change /veh OR2T12 /// OR2T33 /// OR2T8 (11738714_s_at) / RFU VCAN (11748164_a_at) / Fold change /veh VCAN (11748164_a_at) / RFU JSRP1 (11732532_at) / Fold change /veh JSRP1 (11732532_at) / RFU KRTAP10-11 (11738290_x_at) / Fold change /veh KRTAP10-11 (11738290_x_at) / RFU MYO3A (11730013_a_at) / Fold change /veh MYO3A (11730013_a_at) / RFU EBF3 (11725865_a_at) / Fold change /veh EBF3 (11725865_a_at) / RFU CAMK2N1 (11719241_x_at) / Fold change /veh CAMK2N1 (11719241_x_at) / RFU C5orf56 (11738088_a_at) / Fold change /veh C5orf56 (11738088_a_at) / RFU OLFML3 (11715873_a_at) / Fold change /veh OLFML3 (11715873_a_at) / RFU LOC100653217 /// NTM (11731650_a_at) / Fold change /veh LOC100653217 /// NTM (11731650_a_at) / RFU MAPK11 (11762145_a_at) / Fold change /veh MAPK11 (11762145_a_at) / RFU FIZ1 (11724087_x_at) / Fold change /veh FIZ1 (11724087_x_at) / RFU OASL (11726364_x_at) / Fold change /veh OASL (11726364_x_at) / RFU SOX15 (11748057_x_at) / Fold change /veh SOX15 (11748057_x_at) / RFU CD79A (11719716_a_at) / Fold change /veh CD79A (11719716_a_at) / RFU HIST1H1D (11736915_at) / Fold change /veh HIST1H1D (11736915_at) / RFU CASKIN2 (11723855_a_at) / Fold change /veh CASKIN2 (11723855_a_at) / RFU LOC730098 (11760151_x_at) / Fold change /veh LOC730098 (11760151_x_at) / RFU OR4N2 (11742367_at) / Fold change /veh OR4N2 (11742367_at) / RFU PRRT2 (11749266_a_at) / Fold change /veh PRRT2 (11749266_a_at) / RFU SNX32 (11753110_a_at) / Fold change /veh SNX32 (11753110_a_at) / RFU CDHR5 (11726645_a_at) / Fold change /veh CDHR5 (11726645_a_at) / RFU RCAN1 (11760418_a_at) / Fold change /veh RCAN1 (11760418_a_at) / RFU FAM167A (11723789_a_at) / Fold change /veh FAM167A (11723789_a_at) / RFU FAM26E (11764081_at) / Fold change /veh FAM26E (11764081_at) / RFU ISYNA1 (11749810_s_at) / Fold change /veh ISYNA1 (11749810_s_at) / RFU ACY1 (11761880_at) / Fold change /veh ACY1 (11761880_at) / RFU 11764098_at / Fold change /veh 11764098_at / RFU SAMD14 (11745864_x_at) / Fold change /veh SAMD14 (11745864_x_at) / RFU NPB (11741838_a_at) / Fold change /veh NPB (11741838_a_at) / RFU TMPRSS6 (11731388_a_at) / Fold change /veh TMPRSS6 (11731388_a_at) / RFU KRTAP10-2 (11738614_at) / Fold change /veh KRTAP10-2 (11738614_at) / RFU ARHGAP8 /// PRR5-ARHGAP8 (11727945_x_at) / Fold change /veh ARHGAP8 /// PRR5-ARHGAP8 (11727945_x_at) / RFU KRTAP5-7 /// NADSYN1 (11734609_at) / Fold change /veh KRTAP5-7 /// NADSYN1 (11734609_at) / RFU RASL12 (11751679_a_at) / Fold change /veh RASL12 (11751679_a_at) / RFU CDKN2B (11736163_a_at) / Fold change /veh CDKN2B (11736163_a_at) / RFU PRF1 (11729649_at) / Fold change /veh PRF1 (11729649_at) / RFU, ZNF638 /// ZNF638-IT1 / Fold change vs veh, ZNF638 /// ZNF638-IT1 / RFU, PANK3 / Fold change vs veh, PANK3 / RFU, SH3YL1 / Fold change vs veh, SH3YL1 / RFU, ZEB2 / Fold change vs veh, ZEB2 / RFU, NRIP1 / Fold change vs veh, NRIP1 / RFU, PTTG1IP / Fold change vs veh, PTTG1IP / RFU, CAPN2 / Fold change vs veh, CAPN2 / RFU, MED14 / Fold change vs veh, MED14 / RFU, SNORA58 / Fold change vs veh, SNORA58 / RFU, C1orf63 / Fold change vs veh, C1orf63 / RFU, LRRFIP1 / Fold change vs veh, LRRFIP1 / RFU, NDUFAF7 / Fold change vs veh, NDUFAF7 / RFU, SLC12A2 / Fold change vs veh, SLC12A2 / RFU, IBTK / Fold change vs veh, IBTK / RFU, ESF1 / Fold change vs veh, ESF1 / Fold change vs veh, TMEM50B / RFU, TAOK1 / Fold change vs veh, TAOK1 / RFU, ACBD3 / Fold change vs veh, ACBD3 / RFU, TMA16 / Fold change vs veh, TMA16 / RFU, RWDD3 / Fold change vs veh, RWDD3 / RFU, BCAT1 / Fold change vs veh, BCAT1 / RFU, EDEM3 / Fold change vs veh, EDEM3 / RFU, TMEM33 / Fold change vs veh, TMEM33 / RFU, WDR75 / Fold change vs veh, WDR75 / RFU, AHCTF1 / Fold change vs veh, AHCTF1 / RFU, TFRC / Fold change vs veh, TFRC / RFU, ZDHHC17 / Fold change vs veh, ZDHHC17 / RFU, NOM1 / Fold change vs veh, NOM1 / RFU, ARL8B / Fold change vs veh, ARL8B / RFU, ZBTB11 / Fold change vs veh, ZBTB11 / RFU, TAMM41 / Fold change vs veh, TAMM41 / RFU, KIAA1704 /// LOC100996395 / Fold change vs veh, KIAA1704 /// LOC100996395 / RFU, ING1 / Fold change vs veh, ING1 / RFU, TRMT61B / Fold change vs veh, TRMT61B / RFU, FUBP3 / Fold change vs veh, FUBP3 / RFU, TP53 / Fold change vs veh, TP53 / RFU, TNKS2 / Fold change vs veh, TNKS2 / RFU, ZFP14 / Fold change vs veh, ZFP14 / RFU, ACTR2 / Fold change vs veh, ACTR2 / RFU, PPP3R1 / Fold change vs veh, PPP3R1 / RFU, PIK3R1 / Fold change vs veh, PIK3R1 / RFU, HNRNPA1 / Fold change vs veh, HNRNPA1 / RFU, RNF170 / Fold change vs veh, RNF170 / RFU, ZNF28 / Fold change vs veh, ZNF28 / RFU, RNGTT / Fold change vs veh, RNGTT / RFU, OGT / Fold change vs veh, OGT / RFU, BRD1 / Fold change vs veh, BRD1 / RFU, MARS / Fold change vs veh, MARS / RFU, ZNF655 / Fold change vs veh, ZNF655 / RFU, FAHD1 / Fold change vs veh, FAHD1 / RFU, BDP1 / Fold change vs veh, BDP1 / RFU, LRRCC1 / Fold change vs veh, LRRCC1 / RFU, ARID1A / Fold change vs veh, ARID1A / RFU, ZNF146 / Fold change vs veh, ZNF146 / RFU, ZNF330 / Fold change vs veh, ZNF330 / RFU, GPN3 / Fold change vs veh, GPN3 / RFU, C9orf123 / Fold change vs veh, C9orf123 / RFU, N4BP2L2 / Fold change vs veh, N4BP2L2 / RFU, ARFIP1 / Fold change vs veh, ARFIP1 / RFU, FAM179B / Fold change vs veh, FAM179B / RFU, BCL10 / Fold change vs veh, BCL10 / RFU, UHRF1BP1L / Fold change vs veh, UHRF1BP1L / RFU, BET1 / Fold change vs veh, BET1 / RFU, CNOT2 / Fold change vs veh, CNOT2 / RFU, ZNF268 / Fold change vs veh, ZNF268 / Fold change vs veh, ZNF507 / RFU, DGCR2 / Fold change vs veh, DGCR2 / RFU, WDSUB1 / Fold change vs veh, WDSUB1 / Fold change vs veh, HSP90B1 /// MIR3652 / RFU, ADSS / Fold change vs veh, ADSS / RFU, GK / Fold change vs veh, GK / RFU, ZNF148 / Fold change vs veh, ZNF148 / RFU, TAF9 / Fold change vs veh, TAF9 / RFU, SLC1A5 / Fold change vs veh, SLC1A5 / RFU, SLMO2 / Fold change vs veh, SLMO2 / RFU, ABCC4 / Fold change vs veh, ABCC4 / RFU, LOC101060439 /// RAP1B / Fold change vs veh, LOC101060439 /// RAP1B / RFU, RFX7 / Fold change vs veh, RFX7 / RFU, GTPBP10 / Fold change vs veh, GTPBP10 / RFU, CNEP1R1 / Fold change vs veh, CNEP1R1 / RFU, BIVM-ERCC5 /// ERCC5 / Fold change vs veh, BIVM-ERCC5 /// ERCC5 / RFU, ILF3 / Fold change vs veh, ILF3 / RFU 11762660_at / Fold change /veh 11762660_at / RFU VCAN (11757783_s_at) / Fold change /veh VCAN (11757783_s_at) / RFU DDX43 (11728927_at) / Fold change /veh DDX43 (11728927_at) / RFU KRT8 (11758188_x_at) / Fold change /veh KRT8 (11758188_x_at) / RFU NKD1 (11759106_at) / Fold change /veh NKD1 (11759106_at) / RFU SRD5A1 (11742802_a_at) / Fold change /veh SRD5A1 (11742802_a_at) / RFU TPSAB1 /// TPSB2 (11721975_s_at) / Fold change /veh TPSAB1 /// TPSB2 (11721975_s_at) / RFU GSTM3 (11746129_a_at) / Fold change /veh GSTM3 (11746129_a_at) / RFU IL23R (11737362_x_at) / Fold change /veh IL23R (11737362_x_at) / RFU TMEM51 (11727254_a_at) / Fold change /veh TMEM51 (11727254_a_at) / RFU PIWIL2 (11732686_x_at) / Fold change /veh PIWIL2 (11732686_x_at) / RFU ORM1 (11744905_x_at) / Fold change /veh ORM1 (11744905_x_at) / RFU CCDC152 (11743942_at) / Fold change /veh CCDC152 (11743942_at) / RFU ECM1 (11717891_a_at) / Fold change /veh ECM1 (11717891_a_at) / RFU IL23R (11748794_a_at) / Fold change /veh IL23R (11748794_a_at) / RFU TNFAIP8L3 (11732012_x_at) / Fold change /veh TNFAIP8L3 (11732012_x_at) / RFU MBOAT4 (11741988_at) / Fold change /veh MBOAT4 (11741988_at) / RFU 11764193_at / Fold change /veh 11764193_at / RFU TMEM53 (11763286_at) / Fold change /veh TMEM53 (11763286_at) / RFU MAGEB2 (11727129_at) / Fold change /veh MAGEB2 (11727129_at) / RFU TMEM200A (11744735_a_at) / Fold change /veh TMEM200A (11744735_a_at) / RFU CCDC152 (11751479_a_at) / Fold change /veh CCDC152 (11751479_a_at) / RFU FAM211A (11726209_a_at) / Fold change /veh FAM211A (11726209_a_at) / RFU RGS16 (11746705_a_at) / Fold change /veh RGS16 (11746705_a_at) / RFU VCAN (11755009_s_at) / Fold change /veh VCAN (11755009_s_at) / RFU RHOB (11743442_s_at) / Fold change /veh RHOB (11743442_s_at) / RFU RGS16 (11720943_a_at) / Fold change /veh RGS16 (11720943_a_at) / RFU RGS16 (11720944_at) / Fold change /veh RGS16 (11720944_at) / RFU, VPS4B / Fold change vs veh, VPS4B / RFU, CREB1 / Fold change vs veh, CREB1 / RFU, DNAJC13 / Fold change vs veh, DNAJC13 / RFU, GNAQ / Fold change vs veh, GNAQ / RFU, CDK5R1 / Fold change vs veh, CDK5R1 / RFU, ZRANB3 / Fold change vs veh, ZRANB3 / RFU, CUL4A / Fold change vs veh, CUL4A / RFU, CCNY / Fold change vs veh, CCNY / RFU, UFL1 / Fold change vs veh, UFL1 / RFU, COG3 / Fold change vs veh, COG3 / RFU, DIAPH2 / Fold change vs veh, DIAPH2 / RFU, SKA2 / Fold change vs veh, SKA2 / RFU, AFF3 / Fold change vs veh, AFF3 / RFU, LMF1 / Fold change vs veh, LMF1 / RFU, IPO11 / Fold change vs veh, IPO11 / RFU, DFFB / Fold change vs veh, DFFB / RFU, FOXP1 / Fold change vs veh, FOXP1 / RFU, CARD8 / Fold change vs veh, CARD8 / RFU, STRN3 / Fold change vs veh, STRN3 / RFU, ADK / Fold change vs veh, ADK / RFU, RASSF2 / Fold change vs veh, RASSF2 / RFU, WIPF1 / Fold change vs veh, WIPF1 / RFU, LARP1B / Fold change vs veh, LARP1B / RFU, RASA1 / Fold change vs veh, RASA1 / RFU, RB1 / Fold change vs veh, RB1 / RFU, PPFIA1 / Fold change vs veh, PPFIA1 / RFU, MAT2A / Fold change vs veh, MAT2A / RFU, CCT5 / Fold change vs veh, CCT5 / RFU, WDR92 / Fold change vs veh, WDR92 / RFU, CUX1 / Fold change vs veh, CUX1 / RFU, TTC7A / Fold change vs veh, TTC7A / RFU, TMEM135 / Fold change vs veh, TMEM135 / RFU, DEPTOR / Fold change vs veh, DEPTOR / RFU, CPM / Fold change vs veh, CPM / RFU, DNAJB6 / Fold change vs veh, DNAJB6 / RFU, CACNA2D3 / Fold change vs veh, CACNA2D3 / RFU, DTX4 / Fold change vs veh, DTX4 / RFU, TFCP2 / Fold change vs veh, TFCP2 / RFU, GMCL1 /// GMCL1P1 / Fold change vs veh, GMCL1 /// GMCL1P1 / RFU, AEBP2 / Fold change vs veh, AEBP2 / RFU, SNHG1 /// SNORD22 /// SNORD25 /// SNORD26 /// SNORD27 /// SNORD28 /// SNORD29 /// SNORD31 / Fold change vs veh, SNHG1 /// SNORD22 /// SNORD25 /// SNORD26 /// SNORD27 /// SNORD28 /// SNORD29 /// SNORD31 / Fold change (Aza/veh), C12orf56 (ProbeSet 11735607_a_at) / Fold change (ACY-1035/veh), C12orf56 (ProbeSet 11735607_a_at) / Fold change (Aza/veh), FGFR1OP (ProbeSet 11751329_s_at) / Fold change (ACY-1035/veh), FGFR1OP (ProbeSet 11751329_s_at) / Fold change (Aza/veh), VPS36 (ProbeSet 11739960_a_at) / Fold change (ACY-1035/veh), VPS36 (ProbeSet 11739960_a_at) / RFU SYPL1 (11715823_x_at) / Fold change /veh SYPL1 (11715823_x_at) / RFU IGFBP7 (11715501_s_at) / Fold change /veh IGFBP7 (11715501_s_at) / RFU REEP3 (11722064_at) / Fold change /veh REEP3 (11722064_at) / RFU IGLL1 (11728026_x_at) / Fold change /veh IGLL1 (11728026_x_at): dose or concentration left out as unconfirmed
Conditions: ProbeSet 11728879_at; LIST B

Nc1ccc(-c2cccs2)cc1NC(=O)c1ccc2c(c1)cc(C1CC1)n2CCN1CCOCC1 [ACY-1035]
Fold change vs veh, PPP3R1: 0.99
